Test results: PubChem BioAssay AID1259407 (Chemical Carcinogenesis Research Information System (CCRIS), 2018)
Activity calls are given as the source filed them. The rule behind the calls is not given here.

Tested on: CCRIS mutagenicity, Ames/micronucleus/aberration tests
Experiment: CCRIS mutagenicity studies

SMILES: C[C@H]1CCCC(=O)CCC/C=C/c2cc(O)cc(O)c2C(=O)O1
- mutagenic call (End Point: IN VITRO CHROMOSOMAL ABERRATIONS, Test System: BOVINE LYMPHOCYTES, Metabolic Activation: NONE): active; positive (structural changes)
- mutagenic call (End Point: In vitro chromosomal aberrations, Test System: Green monkey kidney (Vero) cells, Metabolic Activation: None): active; positive (structural changes)
- mutagenic call (End Point: In vitro chromosomal aberrations, Test System: Monkey kidney Vero cells, Metabolic Activation: None): active; positive
- mutagenic call (End Point: In vitro micronucleus, Test System: Green monkey kidney (Vero) cells, Metabolic Activation: None): active; positive
- mutagenic call (End Point: In vivo chromosomal aberrations, Test System: Bone marrow cells, Species: Mouse, Strain/Sex: Balb/C/Female, Route: Oral): active; positive (structural changes) (effect diminished by administering clay)
- mutagenic call (End Point: In vivo chromosomal aberrations, Test System: Bone marrow erythrocytes, Species: Mouse, Strain/Sex: Balb/C, Route: Intraperitoneal): active; positive (structural changes)
- mutagenic call (End Point: In vivo micronucleus, Test System: Bone marrow cells, Species: Mouse, Strain/Sex: Balb/C/Female, Route: Oral): active; positive (effect diminished by administering clay)
- mutagenic call (End Point: In vivo micronucleus, Test System: Bone marrow erythrocytes, Species: Mouse, Strain/Sex: Balb/C, Route: Intraperitoneal): active; positive (p<0.05)
- mutagenic call (End Point: UDS Monkey kidney Vero cells, Strain/Indicator: Thymidine incorporation, Metabolic Activation: None, Method: Liquid scintillation counting): active; positive. prevented by vitamin e at 25 um.
- mutagenic call (Test System: AMES SALMONELLA TYPHIMURIUM, Strain/Indicator: TA98, Metabolic Activation: HAMSTER, LIVER, S-9, AROCLOR 1254, Method: STANDARD PLATE): inactive; negative
- mutagenic call (Test System: AMES SALMONELLA TYPHIMURIUM, Strain/Indicator: TA98, Metabolic Activation: NONE, Method: STANDARD PLATE): inactive; negative
- mutagenic call (Test System: AMES SALMONELLA TYPHIMURIUM, Strain/Indicator: TA98, Metabolic Activation: RAT, LIVER, MICROSOMES, PHENOBARBITAL, Method: STANDARD PLATE): inactive; negative
- mutagenic call (Test System: AMES SALMONELLA TYPHIMURIUM, Strain/Indicator: TA98, Metabolic Activation: RAT, LIVER, S-9, AROCLOR 1254, Method: STANDARD PLATE): inactive; negative
- mutagenic call (Test System: AMES SALMONELLA TYPHIMURIUM, Strain/Indicator: TA98, Metabolic Activation: RAT, LIVER, S-9, Method: STANDARD PLATE): inactive; negative
- mutagenic call (Test System: AMES SALMONELLA TYPHIMURIUM, Strain/Indicator: TA100, Metabolic Activation: HAMSTER, LIVER, S-9, AROCLOR 1254, Method: STANDARD PLATE): inactive; negative
- mutagenic call (Test System: AMES SALMONELLA TYPHIMURIUM, Strain/Indicator: TA100, Metabolic Activation: NONE, Method: PREINCUBATION): inactive; negative
- mutagenic call (Test System: AMES SALMONELLA TYPHIMURIUM, Strain/Indicator: TA100, Metabolic Activation: RAT, LIVER, MICROSOMES, PHENOBARBITAL, Method: STANDARD PLATE): inactive; negative
- mutagenic call (Test System: AMES SALMONELLA TYPHIMURIUM, Strain/Indicator: TA100, Metabolic Activation: RAT, LIVER, S-9, AROCLOR 1254, Method: STANDARD PLATE): inactive; negative
- mutagenic call (Test System: AMES SALMONELLA TYPHIMURIUM, Strain/Indicator: TA100, Metabolic Activation: RAT, LIVER, S-9, PHENOBARBITAL, Method: PREINCUBATION): inactive; negative
- mutagenic call (Test System: AMES SALMONELLA TYPHIMURIUM, Strain/Indicator: TA100, Metabolic Activation: RAT, LIVER, S-9, Method: STANDARD PLATE): inactive; negative; toxicity at 1000 ug/plate
- mutagenic call (Test System: AMES SALMONELLA TYPHIMURIUM, Strain/Indicator: TA1535, Metabolic Activation: HAMSTER, LIVER, S-9, AROCLOR 1254, Method: STANDARD PLATE): inactive; negative
- mutagenic call (Test System: AMES SALMONELLA TYPHIMURIUM, Strain/Indicator: TA1535, Metabolic Activation: NONE, Method: STANDARD PLATE): inactive; negative
- mutagenic call (Test System: AMES SALMONELLA TYPHIMURIUM, Strain/Indicator: TA1535, Metabolic Activation: RAT, LIVER, S-9, AROCLOR 1254, Method: STANDARD PLATE): inactive; negative
- mutagenic call (Test System: AMES SALMONELLA TYPHIMURIUM, Strain/Indicator: TA1535, Metabolic Activation: RAT, LIVER, S-9, Method: STANDARD PLATE): inactive; negative
- mutagenic call (Test System: AMES SALMONELLA TYPHIMURIUM, Strain/Indicator: TA1537, Metabolic Activation: HAMSTER, LIVER, S-9, AROCLOR 1254, Method: STANDARD PLATE): inactive; negative
- mutagenic call (Test System: AMES SALMONELLA TYPHIMURIUM, Strain/Indicator: TA1537, Metabolic Activation: NONE, Method: STANDARD PLATE): inactive; negative
- mutagenic call (Test System: AMES SALMONELLA TYPHIMURIUM, Strain/Indicator: TA1537, Metabolic Activation: RAT, LIVER, S-9, AROCLOR 1254, Method: STANDARD PLATE): inactive; negative
- mutagenic call (Test System: AMES SALMONELLA TYPHIMURIUM, Strain/Indicator: TA1537, Metabolic Activation: RAT, LIVER, S-9, Method: STANDARD PLATE): inactive; negative; toxicity at 500 and 1000 ug/plate
- mutagenic call (Test System: AMES SALMONELLA TYPHIMURIUM, Strain/Indicator: TA1538, Metabolic Activation: HAMSTER, LIVER, S-9, AROCLOR 1254, Method: STANDARD PLATE): inactive; negative
- mutagenic call (Test System: AMES SALMONELLA TYPHIMURIUM, Strain/Indicator: TA1538, Metabolic Activation: RAT, LIVER, S-9, AROCLOR 1254, Method: STANDARD PLATE): inactive; negative
- mutagenic call (Test System: AMES SALMONELLA TYPHIMURIUM, Strain/Indicator: TA1538, Metabolic Activation: RAT, LIVER, S-9, Method: STANDARD PLATE): inactive; negative; toxicity at 1000 ug/plate

SMILES: C[C@]12CCC(=O)C=C1CC[C@@H]1[C@@H]2CC[C@]2(C)C(=O)CC[C@@H]12
- mutagenic call (End Point: In vivo micronucleus, Test System: Micronucleated bone marrow polychromatic erythrocytes, Species: Rat, Strain/Sex: F344/N / Male, Route: Oral): inactive; negative
- mutagenic call (End Point: In vivo micronucleus, Test System: Micronucleated normochromatic erythrocytes in peripheral blood, Species: Mouse, Strain/Sex: B6C3F1/Female, Route: Oral): inactive; negative. (the response was judged equivocal based on a statistically significan
- mutagenic call (End Point: In vivo micronucleus, Test System: Micronucleated normochromatic erythrocytes in peripheral blood, Species: Mouse, Strain/Sex: B6C3F1/Male, Route: Oral): inactive; negative
- mutagenic call (Test System: Ames Salmonella typhimurium, Strain/Indicator: TA97, Metabolic Activation: Hamster, Liver, S-9, Aroclor 1254 (10%), Method: Preincubation): inactive; negative
- mutagenic call (Test System: Ames Salmonella typhimurium, Strain/Indicator: TA97, Metabolic Activation: Hamster, Liver, S-9, Aroclor 1254 (30%), Method: Preincubation): inactive; negative
- mutagenic call (Test System: Ames Salmonella typhimurium, Strain/Indicator: TA97, Metabolic Activation: None, Method: Preincubation): inactive; negative
- mutagenic call (Test System: Ames Salmonella typhimurium, Strain/Indicator: TA97, Metabolic Activation: Rat, Liver, S-9, Aroclor 1254 (10%), Method: Preincubation): inactive; negative
- mutagenic call (Test System: Ames Salmonella typhimurium, Strain/Indicator: TA97, Metabolic Activation: Rat, Liver, S-9, Aroclor 1254 (30%), Method: Preincubation): inactive; negative
- mutagenic call (Test System: Ames Salmonella typhimurium, Strain/Indicator: TA98, Metabolic Activation: Hamster, Liver, S-9, Aroclor 1254 (10%), Method: Preincubation): inactive; negative
- mutagenic call (Test System: Ames Salmonella typhimurium, Strain/Indicator: TA98, Metabolic Activation: Hamster, Liver, S-9, Aroclor 1254 (30%), Method: Preincubation): inactive; negative
- mutagenic call (Test System: Ames Salmonella typhimurium, Strain/Indicator: TA98, Metabolic Activation: None, Method: Preincubation): inactive; negative
- mutagenic call (Test System: Ames Salmonella typhimurium, Strain/Indicator: TA98, Metabolic Activation: Rat, Liver, S-9, Aroclor 1254 (10%), Method: Preincubation): inactive; negative
- mutagenic call (Test System: Ames Salmonella typhimurium, Strain/Indicator: TA98, Metabolic Activation: Rat, Liver, S-9, Aroclor 1254 (30%), Method: Preincubation): inactive; negative
- mutagenic call (Test System: Ames Salmonella typhimurium, Strain/Indicator: TA100, Metabolic Activation: Hamster, Liver, S-9, Aroclor 1254 (10%), Method: Preincubation): inactive; negative
- mutagenic call (Test System: Ames Salmonella typhimurium, Strain/Indicator: TA100, Metabolic Activation: Hamster, Liver, S-9, Aroclor 1254 (30%), Method: Preincubation): inactive; negative
- mutagenic call (Test System: Ames Salmonella typhimurium, Strain/Indicator: TA100, Metabolic Activation: None, Method: Preincubation): inactive; negative
- mutagenic call (Test System: Ames Salmonella typhimurium, Strain/Indicator: TA100, Metabolic Activation: Rat, Liver, S-9, Aroclor 1254 (10%), Method: Preincubation): inactive; negative
- mutagenic call (Test System: Ames Salmonella typhimurium, Strain/Indicator: TA100, Metabolic Activation: Rat, Liver, S-9, Aroclor 1254 (30%), Method: Preincubation): inactive; negative
- mutagenic call (Test System: Ames Salmonella typhimurium, Strain/Indicator: TA1535, Metabolic Activation: Hamster, Liver, S-9, Aroclor 1254 (10%), Method: Preincubation): inactive; negative
- mutagenic call (Test System: Ames Salmonella typhimurium, Strain/Indicator: TA1535, Metabolic Activation: Hamster, Liver, S-9, Aroclor 1254 (30%), Method: Preincubation): inactive; negative
- mutagenic call (Test System: Ames Salmonella typhimurium, Strain/Indicator: TA1535, Metabolic Activation: None, Method: Preincubation): inactive; negative
- mutagenic call (Test System: Ames Salmonella typhimurium, Strain/Indicator: TA1535, Metabolic Activation: Rat, Liver, S-9, Aroclor 1254 (10%), Method: Preincubation): inactive; negative
- mutagenic call (Test System: Ames Salmonella typhimurium, Strain/Indicator: TA1535, Metabolic Activation: Rat, Liver, S-9, Aroclor 1254 (30%), Method: Preincubation): inactive; negative
- mutagenic call (Test System: E. coli, Strain/Indicator: WP2 uvrA/pKM101, Metabolic Activation: None, Method: Preincubation): inactive; negative
- mutagenic call (Test System: E. coli, Strain/Indicator: WP2 uvrA/pKM101, Metabolic Activation: Rat, Liver, S-9, Aroclor 1254 (10%), Method: Preincubation): inactive; negative
